From the supplement of paper PMC11451515

Tested on: SEM cells
Experiment: cell viability relative to DMSO control; higher = less cytotoxic
Details: 48 h
Outline: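 Viability values are per-plate percentages of DMSO wells, with background from cell-free wells. Library compounds in DMSO were pin-dosed, in an 11-point threefold series from 47 μM to 0.79 nM, onto NOMO1 or SEM (500 cells/well) or P12-Ichikawa (1000 cells/well) leukemia cells in 1536-well plates (5 μl). Those cells had been adapted for at least four passages in each medium, and CellTiter-Glo One luminescence was read after 48 h at 37°C.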

[1] = HPLM + 10% dialyzed FBS, 0.000781 µM
[2] = HPLM + 10% dialyzed FBS, 0.00234 µM
[3] = HPLM + 10% dialyzed FBS, 0.00702 µM
[4] = HPLM + 10% dialyzed FBS, 0.0211 µM
[5] = HPLM + 10% dialyzed FBS, 0.0632 µM
[6] = HPLM + 10% dialyzed FBS, 0.19 µM
[7] = HPLM + 10% dialyzed FBS, 0.569 µM
[8] = HPLM + 10% dialyzed FBS, 1.71 µM
[9] = HPLM + 10% dialyzed FBS, 5.12 µM
[10] = HPLM + 10% dialyzed FBS, 15.4 µM
[11] = HPLM + 10% dialyzed FBS, 46.1 µM
[12] = RPMI 5 mM glucose + 10% FBS, 0.000781 µM
[13] = RPMI 5 mM glucose + 10% FBS, 0.00234 µM
[14] = RPMI 5 mM glucose + 10% FBS, 0.00702 µM
[15] = RPMI 5 mM glucose + 10% FBS, 0.0211 µM
[16] = RPMI 5 mM glucose + 10% FBS, 0.0632 µM
[17] = RPMI 5 mM glucose + 10% FBS, 0.19 µM
[18] = RPMI 5 mM glucose + 10% FBS, 0.569 µM
[19] = RPMI 5 mM glucose + 10% FBS, 1.71 µM
[20] = RPMI 5 mM glucose + 10% FBS, 5.12 µM
[21] = RPMI 5 mM glucose + 10% FBS, 15.4 µM
[22] = RPMI 5 mM glucose + 10% FBS, 46.1 µM
[23] = RPMI 5 mM glucose + 10% dialyzed FBS, 0.000781 µM
[24] = RPMI 5 mM glucose + 10% dialyzed FBS, 0.00234 µM
[25] = RPMI 5 mM glucose + 10% dialyzed FBS, 0.00702 µM
[26] = RPMI 5 mM glucose + 10% dialyzed FBS, 0.0211 µM
[27] = RPMI 5 mM glucose + 10% dialyzed FBS, 0.0632 µM
[28] = RPMI 5 mM glucose + 10% dialyzed FBS, 0.19 µM
[29] = RPMI 5 mM glucose + 10% dialyzed FBS, 0.569 µM
[30] = RPMI 5 mM glucose + 10% dialyzed FBS, 1.71 µM
[31] = RPMI 5 mM glucose + 10% dialyzed FBS, 5.12 µM
[32] = RPMI 5 mM glucose + 10% dialyzed FBS, 15.4 µM
[33] = RPMI 5 mM glucose + 10% dialyzed FBS, 46.1 µM

Structure (SMILES)	cell viability [1] [%]	cell viability [2] [%]	cell viability [3] [%]	cell viability [4] [%]	cell viability [5] [%]	cell viability [6] [%]	cell viability [7] [%]	cell viability [8] [%]	cell viability [9] [%]	cell viability [10] [%]	cell viability [11] [%]	cell viability [12] [%]	cell viability [13] [%]	cell viability [14] [%]	cell viability [15] [%]	cell viability [16] [%]	cell viability [17] [%]	cell viability [18] [%]	cell viability [19] [%]	cell viability [20] [%]	cell viability [21] [%]	cell viability [22] [%]	cell viability [23] [%]	cell viability [24] [%]	cell viability [25] [%]	cell viability [26] [%]	cell viability [27] [%]	cell viability [28] [%]	cell viability [29] [%]	cell viability [30] [%]	cell viability [31] [%]	cell viability [32] [%]	cell viability [33] [%]
CCc1cc(Nc2nccc(-c3c(-c4ccc(OC)c(C(=O)Nc5c(F)cccc5F)c4)nc4ccccn34)n2)c(OC)cc1N1CCC(N2CCN([S+](C)(=O)[O-])CC2)CC1	88.9	84.9	102	93.2	87.7	84.8	95.3	89.1	96.2	82.6	52.4	88.4	94.6	102	100	107	121	105	91.6	91.9	66.6	23.5	83.1	78	80.7	101	87.8	79.9	86	80.6	89.1	65.9	38.7
CCc1cncnc1N1CCN(Cc2nc3cc(C(F)(F)F)ccc3[nH]2)CC1	107	104	111	101	106	105	105	97.1	88.2	62.4	35.5	93.8	109	106	99.9	101	108	96.2	94.7	84.3	62	23.7	73.3	112	111	109	103	105	81.2	98.2	84.4	60.8	22.1
C[C@H]1[C@H](NC(=O)/C(=N/OC(C)(C)C(=O)O)c2csc(N)n2)C(=O)N1[S+](=O)([O-])O	89.9	102	100	99.3	95.2	103	100	93.1	104	107	86.1	98.7	103	106	106	107	88.3	104	110	104	101	79.7	106	107	121	113	110	129	114	113	105	64.8	88.2
CN[S+](=O)([O-])Cc1ccc2[nH]cc(CCN(C)C)c2c1	95.3	104	102	111	112	118	113	119	118	129	118	89.2	114	104	114	107	119	121	115	126	128	128	93.4	86	87	91.8	94.1	102	95.7	106	94.8	111	92.9
COc1nccc(-c2c(-c3ccc(F)cc3)ncn2C2CCNCC2)n1	98.2	114	120	107	120	114	113	110	102	98.7	81.7	–	–	–	–	–	–	–	–	–	–	–	69.4	117	144	113	116	114	104	126	110	95.8	79.5
CNC(=O)c1ccc(-c2cnc3ncc(Cc4ccc5ncccc5c4)n3n2)cc1F	108	126	122	119	128	117	124	137	120	127	124	110	129	100	127	133	124	126	125	124	133	105	116	121	129	126	129	130	144	146	131	118	132
CC(C)C(C)/C=C/C(C)C1CCC2C3=CC=C4CC(O)CCC4(C)C3CCC21C (centres undefined)	92.6	79.7	86.7	73.2	82	77.4	83.7	76.5	68.6	81.8	86.4	99.6	107	111	99.8	97.1	94	111	92.9	98.5	96.1	102	88	107	95.1	83.1	107	91.4	117	105	87.2	88.8	88.3
CC(C)NCC(O)COc1ccc(COCCOC(C)C)cc1 (centres undefined)	110	115	122	103	124	105	129	132	116	110	118	106	124	130	120	132	118	109	123	121	131	105	123	125	124	115	117	129	118	138	106	126	114
COC1CCC(CC1)N(C(=O)C2CCC(C)CC2)C3=C(SC(=C3)\C4=C\CCCC4)C(O)=O (centres undefined)	111	120	119	117	113	117	104	115	112	84.9	72.1	114	111	124	128	144	134	122	121	121	82.2	73.5	116	114	112	128	138	108	120	137	104	75.3	68
COC1=CC=CC=C1C2=CC=CC(=C2)C/3=C(O)/C4=CC(=C(Cl)C=C4NC3=O)C#N	79.2	92.5	88.2	93.5	101	97.5	92.1	85.7	39.6	9.1	4.47	73.4	89.9	90.7	103	83	81.3	63.9	48	7.21	4.33	2.82	87.3	102	92.9	98.7	93.4	102	93.4	69	21.6	7.81	3.41
COc1c(C)cnc(Cn2cnc3c(Cl)nc(N)nc32)c1C	94.1	106	103	112	102	76.9	52.8	28.3	15.9	22.3	17.6	108	125	99.6	115	100	77.3	50	25.5	16.1	22.9	17.3	115	104	106	116	124	78.6	52.9	33.1	15.8	25	22.1
C[C@@H](NC1=CC=CC=C1C(O)=O)C/2=C/C(=C\N3C(=O)/C=C(\N=C23)N4CCOCC4)C	69.7	76.5	91.3	77.7	87.8	77.7	84.3	79.1	61.1	13.4	19.8	89.1	92.3	117	92.8	104	90.6	98.2	87.5	55	8.88	13.3	65	76.4	91.7	87	92.7	77.8	70.3	63.9	44.1	9.08	11.2
CC(=O)O.Cc1c(-c2ccc(O)cc2)n(Cc2ccc(OCCN3CCCCCC3)cc2)c2ccc(O)cc12	88.5	50	91.9	92	99.7	112	102	101	93.5	117	99.5	92	46.9	89	98.7	86.6	95.4	89.2	95.5	86.9	92.5	94.4	90.2	41.7	93.8	99.6	81.2	102	101	94.1	110	119	101
CC1=C(/C=C/C(C)=C/C=C/C(C)=C/C=C/C=C(C)/C=C/C=C(C)/C=C/C2=C(C)CCCC2(C)C)C(C)(C)CCC1	96.8	101	106	113	102	108	94.3	110	115	95.4	98.1	93.1	115	105	98.3	106	108	94.2	118	119	104	99.4	101	100	114	106	109	105	92.8	125	103	119	85.5
CCCCCOC(=O)NC\1=N\C(=O)N(\C=C1F)[C@@H]2O[C@H](C)[C@@H](O)[C@H]2O	94	111	116	125	109	112	120	114	106	101	100	104	89.8	95.7	109	107	88.7	98.1	98.1	98.4	94.4	85.8	96.6	92.1	105	95.9	106	109	95.6	108	96.8	93.7	86.2
